From PubChem BioAssay (NCI)
Several values for one entry are separate records, joined by “and”; a condition that tells them apart may be missing. Equal entries are not always repeated.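 In this assay, cells in 96-well plates receive the compound at five concentrations for 48 hours. Endpoints are linearly interpolated between the surrounding concentrations. Abbreviation: GI50, concentration required for 50% inhibition of growth. TGI is the concentration that stops growth completely.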

Columns and labels:
Experiment in all cases: NCI anticancer screen, dose series, 48 h
TK-10 renal = tested on: TK-10 renal
RXF 393 renal = tested on: RXF 393 renal
HCC-2998 colon = tested on: HCC-2998 colon
MCF7 breast = tested on: MCF7 breast
786-0 renal = tested on: 786-0 renal
SK-OV-3 ovarian = tested on: SK-OV-3 ovarian
RPMI-8226 leukemia = tested on: RPMI-8226 leukemia
HOP-62 NSCLC = tested on: HOP-62 NSCLC
K-562 leukemia = tested on: K-562 leukemia
MOLT-4 leukemia = tested on: MOLT-4 leukemia

SMILES	GI50 (TK-10 renal)	GI50 (RXF 393 renal)	GI50 (HCC-2998 colon)	GI50 (MCF7 breast)	TGI (MCF7 breast)	GI50 (786-0 renal)	TGI (786-0 renal)	GI50 (SK-OV-3 ovarian)	TGI (SK-OV-3 ovarian)	GI50 (RPMI-8226 leukemia)	GI50 (HOP-62 NSCLC)	TGI (K-562 leukemia)	GI50 (MOLT-4 leukemia)	TGI (TK-10 renal)	TGI (RXF 393 renal)	TGI (HCC-2998 colon)	TGI (RPMI-8226 leukemia)	TGI (HOP-62 NSCLC)	GI50 (K-562 leukemia)	TGI (MOLT-4 leukemia)
CCCCCCCCCCCCCCCCOP(=O)([O-])OCC[N+](C)(C)C	0.182 µM	0.427 µM	1.06 µM	3.62 µM	16 µM and 59.1 µM	2.33 µM	7.76 µM and 25.4 µM	1.2 µM	9.4 µM and 57.1 µM	0.39 µM	1.38 µM	64.9 µM	0.868 µM							
O=C(CI)Nc1ccc(O)c2ccccc12	1.72 µM	0.742 µM	2.13 µM	0.766 µM	2.35 µM	1.73 µM	3.27 µM	4.27 µM	14.8 µM	1.65 µM	2.27 µM	> 100 µM	0.846 µM	3.75 µM	1.97 µM	4.91 µM	4.61 µM	5.14 µM	0.328 µM	8.18 µM
O=CN1N=C(c2cccc(Nc3ccnc4cc(Cl)ccc34)c2)CC1c1ccccc1 (stereo not drawn)	0.345 µM	0.336 µM	1.03 µM	0.311 µM	> 33 µM	0.543 µM	18 µM	0.363 µM	14.3 µM	0.471 µM	0.495 µM	10.5 µM	0.383 µM	16.4 µM	3.58 µM	5.57 µM	4.51 µM	17.3 µM	0.301 µM	2.77 µM
Cn1nc(C(F)(F)F)c(-c2cc(C(F)(F)F)cc(C(F)(F)F)c2)c1-c1ccc(OCc2ccc(Cl)cc2)cc1O	3.11 µM	2.32 µM	2.77 µM	2.23 µM	10.4 µM	1.63 µM	3.28 µM	2.82 µM	10.1 µM	2.26 µM	2.82 µM	10.1 µM	2.61 µM	11.1 µM	6.76 µM	12.4 µM	7.22 µM	8.57 µM	0.62 µM	11 µM
COc1cc(OC)c(OC)cc1/C=C/c1cnnc2ccccc12					> 10 µM		> 10 µM		> 10 µM			> 10 µM		> 10 µM	> 10 µM	> 10 µM	> 10 µM	> 10 µM		> 10 µM
O=C(c1ccccc1)c1c(C(F)(F)F)n([O-])c2cc(C(F)(F)F)ccc2[n+]1=O	1.75 µM	1.34 µM	1.88 µM	1.42 µM	3.29 µM	0.655 µM	1.4 µM	1.77 µM	3.21 µM	1.49 µM	1.83 µM	0.559 µM	0.6 µM	3.18 µM	2.92 µM	3.44 µM	3.75 µM	3.5 µM	0.231 µM	2.29 µM
CC(C)c1cccc(O)c(=O)c1	17.3 µg/mL	0.116 µg/mL	1.63 µg/mL	1.46 µg/mL	5.08 µg/mL	5.54 µg/mL	> 75 µg/mL and > 100 µM		> 100 µM	0.826 µg/mL	5.57 µg/mL			> 75 µg/mL and > 100 µM				> 75 µg/mL and > 100 µM	2.38 µg/mL	> 46.9 µM
CO[C@H]1C[C@](C)(O)Cc2cc3c(c(O)c21)C(=O)c1c(O)cc2c(c1C3=O)O[C@@H]1O[C@@]2(C)[C@H](O)[C@@H](N(C)C)[C@@H]1O	3.89 µM	1.9 µM	1.48 µM		8.86 µM	0.302 µM	1.8 µM and 2.18 µM	0.749 µM	2.45 µM and 3.67 µM	0.667 µM and 0.494 µM	0.48 µM	6.65 µM and 15.7 µM	0.0296 µM and 0.0271 µM	6.49 µM and 21.5 µM	4.01 µM and 4.21 µM	3.04 µM and 11.9 µM	3.66 µM and 10.9 µM	2.57 µM and 1.5 µM		0.186 µM and 0.664 µM
CCCCCCCC(=O)SCC/C=C/[C@@H]1CC(=O)NCc2nc(cs2)C2=N[C@@](C)(CS2)C(=O)N[C@@H](C(C)C)C(=O)N1	0.0175 µM	< 0.0112 µM	0.0224 µM	0.0198 µM	> 100 µM	0.139 µM	19.7 µM	0.0149 µM	0.14 µM	0.0283 µM	0.0321 µM	> 100 µM	< 0.0112 µM	0.316 µM	0.0695 µM	0.408 µM	> 100 µM	13.1 µM	0.0182 µM	> 100 µM
CC(=O)/C=C/C1=C(c2csc3ccccc23)c2ccccc2CC1	23.5 µM	20.2 µM	24.3 µM	21.8 µM	87.8 µM	35.7 µM	> 100 µM	22.4 µM	> 100 µM	8.69 µM	44.5 µM	> 100 µM	15.6 µM	92.9 µM	46.5 µM	49.6 µM	47.3 µM	> 100 µM	18.8 µM	> 100 µM
C[C@H]1CNC(=O)c2cnn3ccc(nc23)N[C@H](C)c2cc(F)ccc2O1	0.749 µM	0.282 µM	3.26 µM	0.381 µM	> 100 µM	0.495 µM	2.11 µM	0.641 µM	10 µM	10.3 µM	1.03 µM	> 100 µM	1.96 µM	3.12 µM	1.26 µM	70.3 µM	41.6 µM	> 21.5 µM	3.64 µM	42.2 µM
COC(=O)c1c2c(c(C)[n+]([O-])c1C)C(=O)C=C(NCc1cccc(Cl)c1)C2=O	2.43 µM	1.2 µM	0.329 µM	0.238 µM	0.766 µM	1.44 µM	3.64 µM	1.92 µM	5.14 µM	0.86 µM	1.13 µM	> 30.2 µM	0.505 µM	6.52 µM	2.53 µM	1.42 µM	4.28 µM	2.8 µM	0.085 µM	1.89 µM
ClCc1ccccc1Cn1cnc2c(Cl)ncnc21	23.1 µM	0.442 µM	1.67 µM	11.1 µM	> 100 µM	17.7 µM	38.4 µM	4.19 µM	15.9 µM	14.1 µM	2.52 µM	5.13 µM	1.6 µM	46.7 µM	2.32 µM	3.54 µM	40.6 µM	6.03 µM	1.2 µM	5.28 µM
O=C(C#Cc1ccccc1)C1=Cc2ccccc2OC1					3.87 µM		6.17 µM		30.9 µM			> 100 µM		3.58 µM	9.78 µM	19.6 µM	58.7 µM	29.3 µM		> 100 µM
Cc1ccc2c(c1)C(=O)c1c-2c(OCCCN(C)C)nc2ccccc12	7.9 µM	2.26 µM	2.18 µM	0.609 µM	2.03 µM	2.98 µM	18.1 µM	4.47 µM	17.4 µM	2.71 µM	2.52 µM	2.98 µM	0.427 µM	23.3 µM	12.7 µM	11.8 µM	7.93 µM	16 µM	1.11 µM	4.57 µM
COC(=O)Nc1nc2ccc(C(=O)c3ccccc3)cc2[nH]1		0.368 µM	2.31 µM and 2.13 µM	0.318 µM and 0.204 µM	> 100 µM	0.593 µM and 0.72 µM	> 100 µM	0.435 µM and 0.467 µM		0.903 µM and 0.297 µM	0.61 µM and 3.19 µM	> 56.3 µM	0.536 µM and 0.393 µM	> 100 µM	2.19 µM	> 100 µM	> 100 µM and 15 µM	> 100 µM	0.391 µM and 0.142 µM	> 45.8 µM
Nc1nc2cc(CC[C@H]3C[C@@H](n4ccc5c(N)ncnc54)[C@H](O)[C@@H]3O)ccc2cc1Br	12.2 µM	6.95 µM	11.2 µM	1.82 µM	19.1 µM	12.7 µM	28.9 µM	13.4 µM	39.2 µM	4.92 µM	8.91 µM	> 100 µM	2.43 µM	26.3 µM	22.9 µM	24.4 µM	57.2 µM	24.2 µM	1.38 µM	64.3 µM
Cc1nc2ccccn2c1NC(=O)NNC(=S)Nc1ccc(F)cc1	> 100 µM	> 100 µM	> 100 µM	> 100 µM	> 100 µM	> 100 µM	> 100 µM	> 100 µM	> 100 µM	> 100 µM	> 100 µM	> 100 µM	20.4 µM	> 100 µM	> 100 µM	> 100 µM	> 100 µM	> 100 µM	> 100 µM	> 100 µM
C=C1SC(=Nc2ccccc2Cl)N(C(=O)c2sc3ccccc3c2Cl)C12CCCCC2	15.2 µM	15.2 µM	7.27 µM	3.95 µM	> 100 µM	37.9 µM	> 100 µM	13.9 µM	> 100 µM	3.81 µM	9.08 µM	> 100 µM	4.72 µM	> 100 µM	88.7 µM	> 100 µM	98.2 µM	> 100 µM	4.14 µM	> 100 µM
O=C1C(=O)c2ccccc2C(O)=C1CCCc1ccc(C2CCCCC2)cc1	23.4 µM	11.5 µM	11.6 µM	4.17 µM	34.2 µM	3.73 µM	43.5 µM	10.9 µM	59.7 µM	1.8 µM	7.2 µM	> 100 µM	4.24 µM	> 100 µM	26.8 µM	61.4 µM	23.7 µM	23 µM	3.28 µM	> 100 µM
